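Five compound concentrations were applied to cells in 96-well plates for 48 hours; endpoints were derived by simple linear interpolation of the resulting dose-response curve. GI50 is the concentration that inhibits growth by half. TGI: concentration producing complete growth inhibition.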

Test systems include MALME-3M melanoma; 786-0 renal; SF-268 CNS; HOP-62 NSCLC; UACC-257 melanoma; SK-OV-3 ovarian; EKVX NSCLC; SK-MEL-5 melanoma; LOX IMVI melanoma; CAKI-1 renal.
Assay in all cases: NCI tumour cell line growth inhibition, 48 h

Consider `Cc1cc2nc(C(Cl)Cl)nc(-c3ccc(Cl)cc3)n2n1`, for which the GI50 with MALME-3M melanoma was 1480 nM; with 786-0 renal, 4.93 µM; in the test on SF-268 CNS, 1340 nM; with HOP-62 NSCLC, 0.864 µM; with UACC-257 melanoma, 2300 nM; in the test with SK-OV-3 ovarian it was 2.11 µM. Besides, the GI50 in the test with EKVX NSCLC is 1600 nM; with SK-MEL-5 melanoma it was 1680 nM; in the test with LOX IMVI melanoma, 3.95 µM; in the test on CAKI-1 renal it was 798 nM. The TGI in the test on MALME-3M melanoma was 2.99 µM; in the test on 786-0 renal it was over 100 µM; in the test with SF-268 CNS it was 4.47 µM; with HOP-62 NSCLC it was 4.27 µM; in the test on UACC-257 melanoma, 5.49 µM; in the test with SK-OV-3 ovarian, 7 µM. The TGI with EKVX NSCLC is 4.3 µM; in the test with SK-MEL-5 melanoma, 3.48 µM; in the test on LOX IMVI melanoma it was over 100 µM; in the test on CAKI-1 renal, 4.11 µM.

Consider `COc1cccc(NC(=O)CC(=O)n2nc(C)c(N=Nc3ccccc3)c2C)c1`, for which the TGI in the test with MALME-3M melanoma, with 786-0 renal, in the test on SF-268 CNS, with HOP-62 NSCLC, with UACC-257 melanoma and in the test on SK-OV-3 ovarian was over 100 µM in each case. Also, the TGI in the test with EKVX NSCLC, with SK-MEL-5 melanoma, in the test with LOX IMVI melanoma and in the test on CAKI-1 renal was over 100 µM throughout.

On to `CC(C)c1ccc(C(C)C(=O)N(CC2=C(C(C)c3ccccn3)c3ccccc3C2)C(C)C)cc1` (stereo not given), for which the GI50 in the test with MALME-3M melanoma is 2830 nM; with 786-0 renal, 3.14 µM; in the test on SF-268 CNS it was 4620 nM; in the test on HOP-62 NSCLC, 5.26 µM; in the test on UACC-257 melanoma, 3430 nM; in the test with SK-OV-3 ovarian, 6.63 µM. In addition, the GI50 is 1720 nM in the test with EKVX NSCLC, 1970 nM in the test with SK-MEL-5 melanoma, 2.54 µM in the test on LOX IMVI melanoma and 1760 nM in the test with CAKI-1 renal. Moreover, the TGI in the test with MALME-3M melanoma is 8.57 µM; with 786-0 renal, 11.5 µM; in the test on SF-268 CNS it was over 100 µM; in the test on HOP-62 NSCLC, over 100 µM; in the test with UACC-257 melanoma it was 38.3 µM; with SK-OV-3 ovarian it was over 100 µM. In addition, the TGI was found to be 8.31 µM in the test on EKVX NSCLC, 4.62 µM in the test with SK-MEL-5 melanoma, 8.23 µM in the test with LOX IMVI melanoma and 6.73 µM in the test on CAKI-1 renal.

In the case of `Cc1ccc(-c2nnc(-c3ccc4ccccc4c3)o2)cc1`, the TGI was over 88.9 µM with MALME-3M melanoma; over 100 µM in the test with 786-0 renal; over 100 µM with SF-268 CNS; over 77.4 µM in the test on HOP-62 NSCLC; over 100 µM with UACC-257 melanoma; over 100 µM in the test with SK-OV-3 ovarian. The TGI is over 100 µM with EKVX NSCLC, over 100 µM in the test on SK-MEL-5 melanoma, over 100 µM in the test with LOX IMVI melanoma and over 86.8 µM with CAKI-1 renal.

Values taken from PubChem BioAssay (NCI).
